Values after ≈ are worked out from the molar mass of the structure shown.
Assays:
[1] = Selectivity is determined by CC50/EC50 of cytopathic effect inhibition against herpes simplex virus 2; assay type: functional
[2] = tested on: HEL; test: Cytotoxicity of compound against varicella zoster virus infected human embryonic lung cells; assay type: functional
[3] = tested on: HEL; test: Cytotoxicity of compound against human cytomegalo virus infected human embryonic lung cells; assay type: functional
[4] = tested on: Human alphaherpesvirus 2; test: (§1) The compound was tested for the cytopathic effect inhibition against herpes simplex virus 2; Effective concentration required to inhibit 50% virus proliferation; assay type: functional, organism-based
[5] = tested on: HEL; test: Cytotoxicity of compound against herpes simplex virus-2 infected human embryonic lung cells; assay type: functional
[6] = tested on: HEL; test: Cytotoxicity of compound against herpes simplex virus 1 infected human embryonic lung cells; assay type: functional
[7] = tested on: Human betaherpesvirus 5; test: The compound was tested for the cytomegalovirus; Effective concentration required to inhibit 50% virus proliferation; assay type: functional, organism-based
[8] = Selectivity is determined by CC50/EC50 of cytomegalovirus; assay type: functional
[9] = Selectivity is determined by CC50/EC50 of cytopathic effect inhibition against herpes simplex virus 1; assay type: functional
[10] = tested on: Human alphaherpesvirus 1; test: The compound was tested for the cytopathic effect inhibition against herpes simplex virus 1; Effective concentration required to inhibit 50% virus proliferation; assay type: functional, organism-based
[11] = Selectivity is determined by CC50/EC50 of VZV virus; assay type: functional
[12] = tested on: Human alphaherpesvirus 3; test: The compound was tested for the viral plaque reduction against VZV virus; Effective concentration required to inhibit 50% virus proliferation; assay type: functional, organism-based
[13] = tested on: Human alphaherpesvirus 1; test: The compound was tested for the viral plaque reduction against herpes simplex virus 1; Effective concentration required to inhibit 50% virus proliferation; assay type: functional, organism-based
[14] = Selectivity is determined by CC50/EC50 of viral plaque reduction against herpes simplex virus 1; assay type: functional
[15] = tested on: HEL; test: The compound was tested for the viral plaque reduction against herpes simplex virus 2; Cytotoxicity concentration required to reduce 50% human embryonic lung cells; assay type: functional
[16] = tested on: Human alphaherpesvirus 2; test: The compound was tested for the viral plaque reduction against herpes simplex virus 2; Effective concentration required to inhibit 50% virus proliferation; assay type: functional, organism-based
[17] = Selectivity is determined by CC50/EC50 of viral plaque reduction against herpes simplex virus 2; assay type: functional
[18] = tested on: Human alphaherpesvirus 3; test: as §1

Compound	SI [1]	CC50 [2] [µg/mL]	CC50 [3] [µg/mL]	EC50 [4] [µg/mL]	CC50 [5] [µg/mL]	CC50 [6] [µg/mL]	EC50 [7] [µg/mL]	SI [8]	SI [9]	EC50 [10] [µg/mL]	SI [11]	EC50 [12] [µg/mL]	EC50 [13] [µg/mL]	SI [14]	CC50 [15] [µg/mL]	EC50 [16] [µg/mL]	SI [17]	EC50 [18] [µg/mL]
OCC(CO)CCn1cnc2cc(Cl)c(Cl)nc21	0	> 100	> 100	> 100	> 100	> 100	> 100	0	0	> 100	>8.5	11.7 (≈ 40.3 µM)						
Nc1nc2c(cc1Cl)nc(C(F)(F)F)n2CCC(CO)CO	0	> 100	> 100	> 100	> 100		> 100	0	>83	1.2 (≈ 3.54 µM)			> 100	0	> 100	> 100	0	
CC(=O)OCC(CCn1cnc2cc(Cl)c(Cl)nc21)COC(C)=O							132 (≈ 353 µM)											
OCC(CO)CCn1cnc2nc(Cl)c(Cl)cc21	0	> 100	> 100	> 100	> 100		> 100	0	0	> 100	>2	49.8 (≈ 172 µM)						
Nc1nc2c(ncn2COCCO)c(=O)[nH]1 [ACYCLOVIR]				0.2 (≈ 0.888 µM)												1.1 (≈ 4.88 µM)		0.6 (≈ 2.66 µM)
Nc1nc2c(ncn2COC(CO)CO)c(=O)[nH]1 [GANCICLOVIR]							0.1 (≈ 0.392 µM)											

From ChEMBL document CHEMBL1130360, “3-[(3-Hydroxymethyl)-4-hydroxybutyl]imidazo[4,5-b]pyridinesnovel antiviral agents” (Bioorg Med Chem Lett, 1997)
